Source: US20180163250A1, “Screening Broths Comprising Esculatin Compounds for the Detection of Specific Microorganisms” (Neogen Corporation, priority 2016, published 2018)

How the values were obtained:
[1] = tested on: methicillin resistant coagulase negative staphylococcus (clinical isolates); test: CHE-phosphate in MRSA broth before and after FAC: coagulase negative staphylococci; type: cell-based; settings: for Broth color after addition of FAC: 5 minutes at ambient temperature after FAC; for Broth color before addition FAC: LAB588, 37° C. for 22 hours
Text: (§1) Scheme 2 above provides a pictorial representation of CHE-phosphate discriminating between methicillin resistant staphylococcus aureus and methicillin resistant coagulase negative Staphylococcus. The single phosphate group from CHE-phosphate is removed by the phosphatase activity of methicillin resistant staphylococcus aureus, but not by the coagulase negative staphylococcus, which lack this phosphatase activity. Addition of ferric ammonium citrate produces the dark, insoluble iron-3,4-cyclohexenoesculatin complex indicating the presence of methicillin resistant staphylococcus aureus. The dark complex is not formed between ferric ammonium citrate and CHE-phosphate, and therefore indicates the absence of phosphatase activity. Accordingly, a lack of a dark precipitate indicates the absence of methicillin resistant staphylococcus aureus.
(§2) A panel of MRSA strains and coagulase negative staphylococci (clinical isolates) were cultured and tested in MRSA broth with CHE-phosphate using the same methodology as Example 2 CHE-phosphate was Dissolved at 200 mg/ml in 50:50 mixture of dimethylformamide and water. LAB588 (MRSA broth, Lab M limited) pre-dispensed to 10 ml volumes was supplemented with 25 μL aliquots from the prepared stock solution. A 0.5 Macfarlane standard suspension of methicillin resistant staphylococcus aureus and coagulase negative staphylococci strains were prepared from 18-24 h cultures grown in tryptic soy broth (LAB004, Lab M Limited) at 37° C. These were diluted to an amount sufficient to inoculate each sample with 100-1000 cfu. Samples were then incubated at 37° C. for 22 hours and observed for growth and color change. 50 μL aliquots of a 250 mg/ml stock solution of Ferric ammonium citrate (FAC) was then added to each sample and allowed to incubate at ambient temperature for 5 minutes. The samples were then observed for blackening indicating phosphatase activity by the presence of free 3,4-cyclohexenoesculatin (Table 3).

[2] = tested on: methicillin resistant staphylococcus aureus; test: CHE-phosphate in MRSA broth before and after FAC: MRSA strains; type: cell-based; settings: for Broth color after addition of FAC: 5 minutes at ambient temperature after FAC; for Broth color before addition FAC: LAB588, 37° C. for 22 hours
Text: as §1, §2

[3] = tested on: MRSA phosphatase activity; test: Confirmatory enzymatic test for MRSA phosphatase activity in the MRSA screening broth (initial investigation); type: cell-based, staphylococcus aureus; settings: substrate and ferric ammonium citrate added at end of incubation, or substrate included before incubation
Text: MRSA detection broths based on the principle of mannitol and trehalose utilization and cefoxitin were designed to be a selective system for high throughput screening of clinical MRSA samples. The broths allow high volume screening of the majority of patient samples by a low cost method with confirmation of the few presumptive positive samples by rapid methods. The broths achieved good performance relative to Mannitol salts broth enrichment and/or direct plating (>98% sensitivity and >96 selectivity). In order to further enhance the selectivity of this broth system, the use of a confirmatory enzymatic test targeted at the MRSA phosphatase activity was investigated. […] Fluorogenic phosphatase substrate, although giving a confirming reaction, suffered from the disadvantage of nonspecific fluorescence in the broth probably due to compound stability, and also necessitated the use of non-auto fluorescent glass or plastic tubes. […]

[4] = tested on: methicillin resistant staphylococcus aureus strains; test: Growth and initial color change in MRSA screening broth (LAB588) containing the substrate; type: cell-based; settings: for Initial color change indicating the presence of MRSA: LAB588 broth with cefoxitin, 100-1000 cfu
Procedure: (§3) CHE-phosphate, and 3,4-cyclohexenoesculatin diphosphate were dissolved at 200 mg/ml in a 50:50 mixture of dimethylformamide and water. 5-bromo-4-chloroindoxyl phosphate was dissolved at 200 mg/ml in a 50:50 mixture of ethanol and water. The mixtures of compounds were added individually to a MRSA broth (LAB588; Lab M limited) pre-dispensed to 10 ml volumes, after supplementation with cefoxitin selective agent, as 25 μL additions from the prepared stock solutions.
(§4) A 0.5 Macfarlane standard suspension of methicillin resistant staphylococcus aureus strains were prepared from 18-24 h cultures grown in tryptic soy broth (LAB004; Lab M Limited) at 37° C. These were diluted and added to the MRSA broth samples in an amount sufficient to inoculate each sample with 100-1000 colony forming units (cfu). Target concentration was achieved by diluting a culture to a target level and inoculating sets of tubes at different inoculum dilutions so as to achieve the target range. The actual quantity inoculated was confirmed by plating 50 μl of the dilution onto Tryptone soy agar (LAB011) and incubating the plates for 18-24 h at 37° C. and counting the resulting colonies. This information was used to determine which tubes had been inoculated within the target dosing range.
(§5) The broth is designed to selectively indicate a positive presence of MRSA by a yellow color, or a presumptive positive presence of MRSA by an orange color (Table 1). To the CHE-phosphate and 3,4-cyclohexenoesculatin diphosphate was added 50 μL of a 250/mg/ml stock solution of Ferric ammonium citrate and samples were allowed to incubate at ambient temperature for 5 minutes.

[5] = tested on: phosphatase activity of methicillin resistant staphylococcus aureus; test: Blackening after addition of ferric ammonium citrate (free CHE, phosphatase activity) in MRSA broth; type: cell-based; settings: for blackening after the addition of ferric ammonium citrate indicating the presence of free 3,4-cyclohexenoesculatin: 5 minutes at ambient temperature after FAC
Procedure: as §3, §4, §5

SMILES: O=c1oc2cc(O)c(OP(=O)(O)O)cc2c2c1CCCC2 [CHE-phosphate, sodium 3,4-cyclohexenoesculatin-6-phosphate (sodium 3-hydroxy-6-oxo-7,8,9,10-tetrahydro-6H-benzo[c]chromen-2-yl phosphate)]
- Broth color after addition of FAC ([1]; CNS 22): Orange
- Broth color before addition FAC ([1]; CNS 22): Orange
- Broth color after addition of FAC ([1]; CNS 28): yellow
- Broth color before addition FAC ([1]; CNS 28): yellow
- Broth color after addition of FAC ([1]; CNS 33): orange
- Broth color before addition FAC ([1]; CNS 33): orange
- Broth color after addition of FAC ([2]; MRSA 3): Black
- Broth color before addition FAC ([2]; MRSA 3): Yellow
- Broth color after addition of FAC ([2]; MRSA 15): Black
- Broth color before addition FAC ([2]; MRSA 15): Yellow
- Broth color after addition of FAC ([2]; MRSA 16A): Black
- Broth color before addition FAC ([2]; MRSA 16A): Orange
- Broth color after addition of FAC ([2]; MRSA 16B): Black
- Broth color before addition FAC ([2]; MRSA 16B): Orange
- Broth color after addition of FAC ([2]; MRSA 75): Black
- Broth color before addition FAC ([2]; MRSA 75): Orange
- Broth color after addition of FAC ([2]; S. aureus NCTC 12493): Black
- Broth color before addition FAC ([2]; S. aureus NCTC 12493): Yellow
- Specificity for the phosphatase enzyme of MRSA versus methicillin resistant coagulase negative staphylococci ([2]; summary of Table 3): specific for the phosphatase enzyme of MRSA
- Blackening reaction in the MRSA screening broth [3]: readily observable blackening reaction
- Initial color change indicating the presence of MRSA ([4]; MRSA 3): Growth (yellow)
- Initial color change indicating the presence of MRSA ([4]; MRSA 15): Growth (yellow)
- Initial color change indicating the presence of MRSA ([4]; MRSA 15A (clinical isolate)): Growth (yellow)
- Initial color change indicating the presence of MRSA ([4]; MRSA 15B (clinical isolate)): Growth (yellow)
- Initial color change indicating the presence of MRSA ([4]; MRSA 15C (clinical isolate)): Growth (orange)
- Initial color change indicating the presence of MRSA ([4]; MRSA 16A (clinical isolate)): Growth (orange)
- Initial color change indicating the presence of MRSA ([4]; MRSA 16B (clinical isolate)): Growth (orange)
- Initial color change indicating the presence of MRSA ([4]; MRSA 16C (clinical isolate)): Growth (orange)
- Inhibition of the growth of MRSA ([4]; MRSA broth LAB588, summary of Table 1): not inhibitory
- Initial color change indicating the presence of MRSA ([4]; S. aureus NCTC 12493): Growth (yellow)
- blackening after the addition of ferric ammonium citrate indicating the presence of free 3,4-cyclohexenoesculatin ([5]; MRSA 3): Blackening
- blackening after the addition of ferric ammonium citrate indicating the presence of free 3,4-cyclohexenoesculatin ([5]; MRSA 15): Blackening
- blackening after the addition of ferric ammonium citrate indicating the presence of free 3,4-cyclohexenoesculatin ([5]; MRSA 15A (clinical isolate)): Blackening
- blackening after the addition of ferric ammonium citrate indicating the presence of free 3,4-cyclohexenoesculatin ([5]; MRSA 15B (clinical isolate)): Blackening
- blackening after the addition of ferric ammonium citrate indicating the presence of free 3,4-cyclohexenoesculatin ([5]; MRSA 15 C (clinical isolate)): Blackening
- blackening after the addition of ferric ammonium citrate indicating the presence of free 3,4-cyclohexenoesculatin ([5]; MRSA 16A (clinical isolate)): Blackening
- blackening after the addition of ferric ammonium citrate indicating the presence of free 3,4-cyclohexenoesculatin ([5]; MRSA 16B (clinical isolate)): Blackening
- blackening after the addition of ferric ammonium citrate indicating the presence of free 3,4-cyclohexenoesculatin ([5]; MRSA 16 C (clinical isolate)): Blackening
- blackening after the addition of ferric ammonium citrate indicating the presence of free 3,4-cyclohexenoesculatin ([5]; S. aureus NCTC 12493): Blackening
- Specificity of enzymatic phosphatase activity for the substrate ([5]; summary of Table 2): specific
